What was measured:
[1] = test system: iCasp9M-transduced EBV-CTLs; assay: CID-induced apoptosis / loss of GFP+ cells in iCasp9M-transduced EBV-CTLs; format: cell-based, human
Method: CID (AP20187; ARIAD Pharmaceuticals) at indicated concentrations was added to transfected 293T cells or transduced CTLs. Adherent and nonadherent cells were harvested and washed with annexin binding buffer (BD Pharmingen, San Jose, Calif.). Cells were stained with annexin-V and 7-amino-actinomycin D (7-AAD) for 15 minutes according to the manufacturer's instructions (BD Pharmingen). Within 1 hour after staining, cells were analyzed by flow cytometry using CellQuest software (Becton Dickinson).
Inducible iCasp9M proficiency in CTLs was tested by monitoring loss of GFP-expressing cells after administration of CID; 91.3% (range, 89.5%-92.6% in 5 different donors) of GFP^+ cells were eliminated after a single 10-nM dose of CID. […] In all experiments, CTLs that survived CID treatment had low transgene expression with a 70% (range, 55%-82%) reduction in mean fluorescence intensity of GFP after CID. No further elimination of the surviving GFP^+ T cells could be obtained by an antigenic stimulation followed by a second 10-nM dose of CID. Therefore, the non-responding CTLs most likely expressed insufficient iCasp9M for functional activation by CID. To investigate the correlation between low levels of expression and CTL non-response to CID, CTLs were sorted for low, intermediate, and high expression of the linked marker gene GFP and mixed 1:1 with nontransduced CTLs from the same donor to allow for an accurate quantitation of the number of transduced T cells responding to CID-induced apoptosis.
The number of transduced T cells eliminated increased with the level of GFP transgene expression (see FIGS. 4A, 4B and 4C). To determine the correlation between transgene expression and function of iCasp9M, iCasp9M IRES.GFP-transduced EBV-CTL were selected for low (mean 21), intermediate (mean 80) and high (mean 189) GFP expression. Selected T-cells were incubated overnight with 10 nM CID and subsequently stained with annexin V and 7-AAD. Indicated are the percentages of annexin V+/7-AAD− and annexin V+/7-AAD+ T−. Selected T-cells were mixed 1:1 with non-transduced T-cells and incubated with 10 nM CID following antigenic stimulation. Indicated is the percentage of residual GFP-positive T-cells on day 7.
For GFPhigh-selected cells, 10 nM CID led to deletion of 99.1% (range, 98.7%-99.4%) of transduced cells. On the day of antigen stimulation, F-Casp9M.I.GFP-transduced CTLs were either untreated or treated with 10 nM CID. Seven days later, the response to CID was measured by flow cytometry for GFP. The percentage of transduced T cells was adjusted to 50% to allow for an accurate measurement of residual GFP^+ cells after CID treatment. The responses to CID in unselected (top row of and GFPhigh-selected CTLs (bottom row of was compared. The percentage of residual GFP^+ cells is indicated.
After overnight incubation with 10 nM CID, F-Casp9M.I.GFPhigh-transduced T cells had apoptotic characteristics such as cell shrinkage and fragmentation by microscopic evaluation. […] A representative example of 3 separate experiments is shown.

[2] = test system: transduced T cells (human PBMCs); assay: IL-6 ELISA as indicator of MC activity in transduced T cells; format: cell-based
[3] = test system: iC9 T cells (pBP0220, GFP-Fluc); assay: In vivo apoptotic activation in NSG mice, iC9 T cells (IVIS imaging, spleen FACS); design: species or system mouse
Method: PBMCs from donor 676 were activated and co-transduced with one of the off-switches and GFP-Fluc retroviruses. Eleven days after transduction, cells were analyzed for transduction efficiency with GFP and anti-CD3/anti-CD19 antibodies (FIG. 109A). […] The CD19^+ MFI for the different T cell populations were: iC9=15.07, iRC9=14.38, and iRmC9=13.39. The cells were collected, counted, washed, and resuspended at 1×10^6 cells in 100 μl PBS for each tail vein mouse injection (Table 10) (time=−18 hr). […] IVIS imaging was performed at −14, 0, 5, 24 and 29 hours. Mice were sacrificed and spleens were collected for FACS analysis with hCD3, hCD19 and mCD45 antibodies. […] The higher percentage of remaining iRmC9 T cells observed may be due to an artifact of normalizing the no drug group.
PBMCs from donor 676 were activated and co-transduced with retroviruses encoding the pBP0220, 1310, 1327 vectors and the GFP-Fluc plasmid. (FIG. 109A) Eleven days post transduction, the cells were analyzed for CD19 and GFP transduction efficiency prior to injection into mice. (FIGS. 109B & C) NSG mice were injected i.v. with 107 T cells co-transduced with GFP-Fluc per mouse and suicide drugs were injected i.p. the next day. Bioluminescence of cells was assessed at −14, 0, 5, 24, and 29 hours post-drug administration. […]

293T cells = assay: SeAP reporter assay: iC9 without FRB-Caspase-9 (controls); format: cell-based; conditions: iC9 with control vector or FRB without caspase fusion
Source text: (FIGS. 39 and 40). iC9 (FKBPv12-Caspase-9) was cotransfected with a control vector expressing only an epitope tag (FIG. 39) or a vector containing FRB without caspase fusion, but instead with a short, irrelevant tag (FIG. 40).
FIG. 39—FRB-Caspase-9 is required for a rapamycin-induced cell death switch. 293T cells were transfected with SRα-SeAP (pBP0046), pS-NLS-E and pSH1-FKBPv12-Caspase9 (pBP0044).
FIG. 40—Caspase-9 fusion with FRB is required for a rapamycin-induced cell death switch. 293T cells were transfected with SRα-SeAP (pBP0046), pSH1-FRBL-VP16 (pBP0731) (4) and pSH1-FKBPv12-Caspase9 (pBP0044). […] Loss of reporter activity is a proxy for the loss of cell viability. Reporter activity is expressed as a percentage of the average of 8 wells containing no drug. Drug-containing wells were assayed in triplicate wells.

[4] = GFPhigh-selected, overnight 10 nM CID, mean
[5] = representative example of 3 experiments

Row | Structure (SMILES) | concentration sufficient to obtain the maximal deletion effect ([1]; F-Casp9M.I.GFPhigh, day 7) [nM] | deletion of transduced cells ([1]; GFPhigh-selected cells, 10 nM CID) [%] | apoptotic (annexin-V+/7-AAD−) phenotype [1, 4] [%] | necrotic (annexinV+/7-AAD+) phenotype [1, 4] [%] | reduction in mean fluorescence intensity of GFP in surviving CTLs ([1]; after CID) [%] | apoptotic phenotype (annexin V+, 7-AAD−) [1, 5] [%] | necrotic phenotype (annexin V+, 7-AAD+) [1, 5] [%] | GFP+ cells eliminated ([1]; single 10-nM dose of CID, unselected CTLs, 5 donors) [%] | MC activity (secreted IL-6) in iMC+CARζ-T cells ([2]; 24 hours) | MC activity (secreted IL-6) in MC-rap-T cells ([2]; pBP1440, 24 hours) | iC9 T cells remained in splenocytes compared to no drug- or rapamycin-treated groups ([3]; 5 mg/kg rimiducid i.p., spleen FACS, FIG. 109D) [%] | removal of iC9 T cells / bioluminescence signal (IVIS imaging) ([3]; NSG mice, 5 mg/kg rimiducid or 10 mg/kg rapamycin i.p., FIGS. 109B & C) | cell death (loss of SeAP reporter) without FRB-Caspase-9 (293T cells)
1 | CC[C@H](C(=O)N1CCCC[C@H]1C(=O)O[C@H](CCc1ccc(OC)c(OC)c1)c1cccc(OCC(=O)NCC(CNC(=O)COc2cccc([C@@H](CCc3ccc(OC)c(OC)c3)OC(=O)[C@@H]3CCCCN3C(=O)[C@@H](CC)c3cc(OC)c(OC)c(OC)c3)c2)CN(C)C)c1)c1cc(OC)c(OC)c(OC)c1 [AP20187] | 1 | 99.1 | 64 | 30 | 70 | 64 | 32 | 91.3 | – | – | – | – | –
2 | CC[C@H](C(=O)N1CCCC[C@H]1C(=O)O[C@H](CCc1ccc(OC)c(OC)c1)c1cccc(OCC(=O)NCCNC(=O)COc2cccc([C@@H](CCc3ccc(OC)c(OC)c3)OC(=O)[C@@H]3CCCCN3C(=O)[C@@H](CC)c3cc(OC)c(OC)c(OC)c3)c2)c1)c1cc(OC)c(OC)c(OC)c1 [rimiducid] | – | – | – | – | – | – | – | – | stimulated strongly | not stimulated | ~20 | induced significant removal | effectively permitted homodimerization and induction of Caspase-9

From patent US20230065562A1, “DUAL CONTROLS FOR THERAPEUTIC CELL ACTIVATION OR ELIMINATION” (Bellicum Pharmaceuticals, Inc., priority 2015, published 2023)
